Assay results taken from US20240409536A1, “COMPOUNDS AND METHODS FOR MODULATING SPLICING” (REMIX THERAPEUTICS INC., priority 2021, published 2024).
pIC50: −log10 of the molar value.

Columns and labels:
Target C = assay: HiBiT protein abundance assay, Target C (K562 HiBiT knock-in cells); assay type: cell-based, human; conditions: 24 hours
Experimental: • Promega Nano-Glo HiBiT Lytic Detection System (cat #N3030) • Corning 384-well TC-treated microplates (cat #3570) • Synthego Engineered Cells Knock-In Clones
Cells were maintained in IMDM with 10% FBS. Before the assay, cells were diluted with […] growth media (IMDM+1% FBS media) and were seeded in a 384-well plate at a density of 10000 cells/well (for each cell line listed in Table 6). Each compound was prepared as a 10-point 3-fold serial dilution in DMSO with the top dose at a final concentration of 10 μM in the well. Unmodified K562 cells were added at the previously specified density with DMSO to serve as an assay baseline and positive control (PC) and DMSO only with the respective modified cell lines was added to the negative control (NC) columns. Final DMSO concentration was kept at or below 0.25%. Treated cell plates were placed in an incubator at 37° C. with 5% CO2 for 24 hours. After 24 hours, 25 μL of Complete HiBit Lytic reagent was added to each well at room temperature (e.g. one plate requiring 10 mL Lytic Buffer, 100 μL LgBiT Protein, 200 μL Lytic Substrate), shaken for 5 minutes at 600 RPM, then left to sit for 10 minutes for signal to stabilize before reading on a Spark Cyto plate reader (Tecan) with a 500 ms measurement time.
To determine compound effects on protein abundance of each target in Table 6, the percent response for each respective cell line was calculated at each compound concentration as follows:
For the normalized response at each concentration, a four-parameter logistical regression was fit to the data and the response was interpolated at the 50% value to determine a concentration for protein abundance at 50% (IC50) the untreated control.

HTT mRNA = assay: Gene panel canonical junction qPCR assay, HTT CJ mRNA decrease; assay type: cell-based, human; conditions: Homo sapiens, canonical junction qPCR, read-out: HTT IC50 (decrease in CJ mRNA levels)
Outline: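 A673 or K562 cells were treated with compound, and lysates underwent cDNA synthesis and qPCR with a CY5 5′-nuclease probe or primer spanning the canonical exon junction. ΔCt versus GAPDH, GUSB or PPIA was normalized to DMSO (2^(−ΔΔCt)), converted to percentage response and fitted four-parameter logistic for IC50.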

| Structure (SMILES) | pIC50 (Target C) | pIC50 (HTT mRNA) |
| --- | --- | --- |
| Cc1cn2cc(NC(=O)c3ccc([C@@]45CCNCC4C5)c4nccnc34)cc(F)c2n1 (stereo in doubt) [Compound 248, 8-{3-azabicyclo[4.1.0]heptan-6-yl}-N-{8-fluoro-2-methylimidazo[1,2-a]pyridin-6-yl}quinoxaline-5-carboxamide 2,2,2-trifluoroacetate] | < 5.00 | 5.00 to 6.00 |
| Cc1cn2cc(NC(=O)c3ccc(N4CCNCC4)c4nccnc34)cc(F)c2n1 [Compound 111] | 5.00 to 6.00 | 5.00 to 6.00 |
| Cc1cn2nc(NC(=O)c3ccc(C4CCNCC4)c4ccnnc34)cc(C)c2n1 [Compound 113] | 5.00 to 6.00 | 5.00 to 6.00 |
| Cn1cc2ccc(NC(=O)c3ccc(N4CCNCC4)c4ccnnc34)cc2n1 [Compound 115] | < 5.00 | < 5.00 |
| Cn1cc2c(F)cc(NC(=O)c3ccc(N4CCNCC4)c4ccnnc34)cc2n1 [Compound 116] | < 5.00 | < 5.00 |
| Cc1nc2c(F)cc(NC(=O)c3ccc(N4CCNCC4)c4ccnnc34)cc2s1 [Compound 118] | 6.00 to 7.00 | 6.00 to 7.00 |
| Cc1cn2cc(NC(=O)c3ccc(N4CCNCC4)c4ccnnc34)c(C)cc2n1 [Compound 119] | 5.00 to 6.00 | 5.00 to 6.00 |
| Cc1cn2cc(NC(=O)c3ccc(N4CCNCC4)c4ccnnc34)ncc2n1 [Compound 120] | < 5.00 | < 5.00 |
| CNC1CCN(c2ccc(C(=O)Nc3cc(F)c4nc(C)cn4c3)c3nc(OCCOC)ccc23)C1 (stereo not shown) [Compound 234] | 5.00 to 6.00 | 5.00 to 6.00 |
| CN[C@@H]1CCN(c2ccc(C(=O)Nc3cc(F)c4nc(C)cn4c3)c3nnccc23)C1 [Compound 238, (R)—N-(8-fluoro-2-methylimidazo[1,2-a]pyridin-6-yl)-5-(3-(methylamino)pyrrolidin-1-yl)cinnoline-8-carboxamide] | 5.00 to 6.00 | 5.00 to 6.00 |
| CN[C@H]1CCN(c2ccc(C(=O)Nc3cc(F)c4nc(C)cn4c3)c3nnccc23)C1 [Compound 239, (S)—N-(8-fluoro-2-methylimidazo[1,2-a]pyridin-6-yl)-5-(3-(methylamino)pyrrolidin-1-yl)cinnoline-8-carboxamide] | 5.00 to 6.00 | 5.00 to 6.00 |
| Cc1cn2cc(NC(=O)c3ccc(C4=CCNCC4)c4nccnc34)cc(F)c2n1 [Compound 240, N-{8-fluoro-2-methylimidazo[1,2-a]pyridin-6-yl}-8-(1,2,3,6-tetrahydropyridin-4-yl)quinoxaline-5-carboxamide] | 6.00 to 7.00 | > 7.00 |
| Cc1cn2cc(NC(=O)c3ccc(N4CC[C@@H](N(C)C)C4)c4nccnc34)cc(F)c2n1 [Compound 242, 8-[(3R)-3-(dimethylamino)pyrrolidin-1-yl]-N-{8-fluoro-2-methylimidazo[1,2-a]pyridin-6-yl}quinoxaline-5-carboxamide] | < 5.00 | < 5.00 |
| COc1cnc2c(N3CC[C@@H](N(C)C)C3)ccc(C(=O)Nc3cc(F)c4nc(C)cn4c3)c2n1 [Compound 244, 8-[(3R)-3-(dimethylamino)pyrrolidin-1-yl]-N-{8-fluoro-2-methylimidazo[1,2-a]pyridin-6-yl}-3-methoxyquinoxaline-5-carboxamide] | 6.00 to 7.00 | 6.00 to 7.00 |
| Cc1cn2cc(NC(=O)c3ccc([C@H]4CCNC4)c4nccnc34)cc(F)c2n1 [Compound 246] | 5.00 to 6.00 | 5.00 to 6.00 |
| Cc1cn2cc(NC(=O)c3ccc(N4CCN[C@@H](C(C)C)C4)c4nccnc34)cc(F)c2n1 [Compound 250, N-{8-fluoro-2-methylimidazo[1,2-a]pyridin-6-yl}-8-[(3S)-3-isopropylpiperazin-1-yl]quinoxaline-5-carboxamide] | < 5.00 | < 5.00 |

| Structure (SMILES) | pIC50 (Target C) | pIC50 (HTT mRNA) |
| --- | --- | --- |
| Cc1cn2cc(NC(=O)c3ccc(N4CCN[C@@H](C5CC5)C4)c4nccnc34)cc(F)c2n1 [Compound 252, 8-[(3S)-3-cyclopropylpiperazin-1-yl]-N-{8-fluoro-2-methylimidazo[1,2-a]pyridin-6-yl}quinoxaline-5-carboxamide] | 5.00 to 6.00 | < 5.00 |
| Cc1cn2cc(NC(=O)c3ccc(N4CCN[C@H](C5CC5)C4)c4nccnc34)cc(F)c2n1 [Compound 253, 8-[(3R)-3-cyclopropylpiperazin-1-yl]-N-{8-fluoro-2-methylimidazo[1,2-a]pyridin-6-yl}quinoxaline-5-carboxamide] | 5.00 to 6.00 | 5.00 to 6.00 |
| Cc1cn2cc(NC(=O)c3ccc(N4CCN5CCOC[C@@H]5C4)c4nccnc34)cc(F)c2n1 [Compound 255, (S)—N-(8-fluoro-2-methylimidazo[1,2-a]pyridin-6-yl)-8-(hexahydropyrazino[2,1-c][1,4]oxazin-8(1H)-yl)quinoxaline-5-carboxamide] | 6.00 to 7.00 | 6.00 to 7.00 |
| Cc1cn2cc(NC(=O)c3ccc(N4CCN5CCOC[C@H]5C4)c4nccnc34)cc(F)c2n1 [Compound 256, (R)—N-(8-fluoro-2-methylimidazo[1,2-a]pyridin-6-yl)-8-(hexahydropyrazino[2,1-c][1,4]oxazin-8(1H)-yl)quinoxaline-5-carboxamide] | 5.00 to 6.00 | 5.00 to 6.00 |
| Cc1cn2cc(NC(=O)c3ccc(N4CC(C)NC(C)C4)c4nc(C)c(C)nc34)cc(F)c2n1 (stereo not shown) [Compound 257] | 5.00 to 6.00 | 5.00 to 6.00 |
| Cc1cn2cc(NC(=O)c3ccc(N4CCC(NC5CC5)CC4)c4nccnc34)cc(F)c2n1 [Compound 258, 8-(4-(cyclopropylamino)piperidin-1-yl)-N-(8-fluoro-2-methylimidazo[1,2-a]pyridin-6-yl)quinoxaline-5-carboxamide] | 6.00 to 7.00 | 6.00 to 7.00 |
| Cc1cn2cc(NC(=O)c3ccc(N4CCC(NC5CC5)CC4)c4ccnnc34)cc(F)c2n1 [Compound 259, 5-[4-(cyclopropylamino)piperidin-1-yl]-N-{8-fluoro-2-methylimidazo[1,2-a]pyridin-6-yl} cinnoline-8-carboxamide] | 5.00 to 6.00 | 6.00 to 7.00 |
| COc1nc2c(N3C[C@@H](C)N[C@@H](C)C3)ccc(C(=O)Nc3cc(F)c4nc(C)cn4c3)c2nc1C [Compound 260, 8-((3R,5S)-3,5-dimethylpiperazin-1-yl)-N-(8-fluoro-2-methylimidazo[1,2-a]pyridin-6-yl)-2-methoxy-3-methylquinoxaline-5-carboxamide; 2,2,2-trifluoroacetate] | 5.00 to 6.00 | 6.00 to 7.00 |
| Cc1cn2cc(NC(=O)c3c(F)cc(N4C[C@@H](C)N[C@@H](C)C4)c4nccnc34)cc(F)c2n1 [Compound 261, cis-8-[(3R,5S)-3,5-dimethylpiperazin-1-yl]-6-fluoro-N-{8-fluoro-2-methylimidazo[1,2-a]pyridin-6-yl}quinoxaline-5-carboxamide] | 5.00 to 6.00 | 5.00 to 6.00 |
| Cc1cn2cc(NC(=O)c3ccc(N4C5CNCC54)c4nccnc34)cc(F)c2n1 (stereo not shown) [Compound 262, 8-{3,6-diazabicyclo[3.1.0]hexan-6-yl}-N-{8-fluoro-2-methylimidazo[1,2-a]pyridin-6-yl}quinoxaline-5-carboxamide] | 6.00 to 7.00 | 6.00 to 7.00 |
| Cc1cn2cc(NC(=O)c3ccc(N4C[C@@H](C)N[C@@H](C5CC5)C4)c4nccnc34)cc(F)c2n1 [Compound 266, 8-((3S,5R)-3-cyclopropyl-5-methylpiperazin-1-yl)-N-(8-fluoro-2-methylimidazo[1,2-a]pyridin-6-yl)quinoxaline-5-carboxamide] | 6.00 to 7.00 | 5.00 to 6.00 |
| Cc1cn2cc(NC(=O)c3ccc(N4C[C@@H](C5CC5)N[C@@H](C)C4)c4nccnc34)cc(F)c2n1 [Compound 267, 8-((3R,5S)-3-cyclopropyl-5-methylpiperazin-1-yl)-N-(8-fluoro-2-methylimidazo[1,2-a]pyridin-6-yl)quinoxaline-5-carboxamide] | < 5.00 | < 5.00 |
| COc1ccc2c(N3C[C@@H](C)N[C@@H](C)C3)ccc(C(=O)Nc3cc(F)c4nc(C)cn4c3)c2n1 [Compound 268, 5-[(3R,5S)-3,5-dimethylpiperazin-1-yl]-N-{8-fluoro-2-methylimidazo[1,2-a]pyridin-6-yl}-2-methoxyquinoline-8-carboxamide] | 5.00 to 6.00 | 5.00 to 6.00 |
| Cc1cn2cc(NC(=O)c3ccc(N4CC[C@@H](N)C4)c4ccnnc34)cc(F)c2n1 [Compound 270] | 5.00 to 6.00 | 5.00 to 6.00 |
| COc1cc2c(N3C[C@@H](C)N[C@@H](C)C3)ccc(C(=O)Nc3cc(F)c4nc(C)cn4c3)c2nn1 [Compound 273, 5-[(3R,5S)-3,5-dimethylpiperazin-1-yl]-N-{8-fluoro-2-methylimidazo[1,2-a]pyridin-6-yl}-3-methoxycinnoline-8-carboxamide] | 6.00 to 7.00 | 6.00 to 7.00 |
| Cc1cn2cc(NC(=O)c3ccc(N4C[C@@H](C)N[C@@H](C)C4)c4ncc(O)nc34)cc(F)c2n1 [Compound 275] | < 5.00 | < 5.00 |
